Entries after “also recorded” stand apart in the source; their conditions may differ.
How the values were obtained:
[1] = test system: human iPSC derived cells (islet-like organoids, MCS, HILOs); assay: Glucose-stimulated insulin/c-peptide secretion assay (GSIS, ELISA); format: cell-based; conditions: 3 mM vs 20 mM glucose
Experimental: Insulin release from intact islets was monitored using batch incubation methods as reported by E. Yoshihara et al., 2016, Cell metabolism, 23:622-634. Briefly, overnight-cultured, isolated pancreatic islets (RPMI-1640 medium supplemented with 10% (v/v) fetal bovine serum and 1% (v/v) Antibiotic-Antimycotic (Gibco)) were pre-cultured at 37° C. for 30 minutes in Krebs-Ringer bicarbonate buffer (KRBB) containing 129.4 mM NaCl, 3.7 mM KCl, 2.7 mM CaCl2), 1.3 mM KH2PO4, 1.3 mM MgSO4, 24.8 mM NaHCO3 (equilibrated with 5% CO2, 95% O2, pH 7.4), 10 mM HEPES and 0.2% (v/v) BSA (fraction V, Sigma) (KRBH) with 3 mM glucose). […] After 30 minutes, the islets were pelleted by centrifugation and secreted insulin levels were determined in the medium by Enzyme Linked Immunosorbent Assay (ELISA), (Rat/mouse Insulin ELISA KIT (Millipore) and Human Insulin ELISA KIT or ultrasensitive human c-peptide ELISA Kit (Millipore) for mouse and human islets, respectively). […] After 30 minutes, the cells were pelleted by centrifugation and c-peptide levels were determined in the supernatant medium using the human c-peptide ELISA KIT (Millipore). […]
Insulin release from intact islets was monitored using batch incubation methods (Yoshihara et al., 2010, Nat. Commun. 1:127). […] After 30 min, the cells were pelleted by centrifugation and c-peptide levels were determined by human c-peptide ELISA KIT (Millipore).

INS-1 cells = assay: Proinsulin-NanoLuc Gaussia luciferase insulin secretion assay in INS-1 cells; format: cell-based, rat; conditions: 20 mM glucose with Exendin-4
Experimental: It was previously published that a reporter construct, in which the Gaussia luciferase is placed within the c-peptide portion of proinsulin accurately measures insulin secretion without affecting β-cell function (Burns et al., 2015, Cell metabolism, 21, 126-137). Using a lentiviral system, INS-1 cells stably expressing this Gaussia luciferase were generated. Luciferase secretion from INS-1 cells stably expressing Proinsulin-NanoLuc increased with high-glucose (20 mM), high glucose with Exendin-4 (G20 mM+Ex4), and the depolarizing agent, potassium chloride, confirming the utility of this reporter system. Next, the usefulness of this reporter to measure insulin secretion in mouse or human islets transiently infected with the Proinsulin-NanoLuc reporter was evaluated. Luciferase secretion in response to 20 mM high glucose was detected in both transiently infected mouse and human islets were detected. Importantly, the assay sensitivity was sufficient that insulin secretion could be qualified at the level of single islets. […] (See, e.g., WO 2017/205511). […]

[2] = test system: human islet-like organoids; assay: Proinsulin-NanoLuc Gaussia luciferase insulin secretion assay in single or pooled islets/organoids; format: cell-based; conditions: pooled organoids (10 to 100 per assay)
Excerpt: Recent studies have reported the generation of insulin producing β-like cells from hESC and hiPSC capable of secreting insulin in response to glucose (Pagliuca et al., 2014, Cell, 159, 428-439; Rezania et al., 2014, Nature Biotechnology, 32(11):1121-33; Russ et al., 2015, FMBO Journal, 34:1759-1772). […] To date, efforts have focused on the independent generation of insulin producing β-like cells, glucagon producing α-like cells, and somatostatin producing 6-like cells from hPSC. However, these approaches lack the supporting cells important for regulation, such as mesenchymal cells, adipose cells, and vasculature cells. Since the 3D structure of islets naturally enhances their function, these missing cellular components may compromise the functionality of islet-like cells clusters. […] To test this idea, single organoid proinsulin secretion assays were performed. Human islet-like organoids generated by methods described herein are morphologically identical with human islet.
Mouse islets, human islets and human islets like organoids were plated in their respective growth media with 10 μg/ml Polybrene® polymer (Santacruz). Viruses were then added. After overnight culture, cells were placed in fresh growth media. […]

[3] = test system: chromatin accessibility in HILO cells; assay: ATAC-Seq chromatin accessibility in HILOs; format: cell-based, human
Excerpt: […] D. Buenrostro et al., 2015, Current Protocols in Molecular Biology, 109:21-29. Reads were aligned by Bowtie to hg19, and peaks were called by HOMER using default settings. Differential peaks and motif analyses from 2 biological duplicates were identified using HOMER essentially as instructed (see, e.g., S. Heinz et al., 2010, J. Mol. Cell, 38:576-589). Detailed methods for HOMER are freely available, e.g., at http://http://homer.salk.edu/homer/. Briefly, the program searches against the target and background sequences for enrichment of known motifs, and returns motifs enriched with a threshold of 1.5-fold change and a p-value of less than 0.05. Promoter regions, defined as 1 kilobase (kB) upstream from the transcription start site, of genes with enhanced chromatin accessibility upon Wnt4 treatment, were interrogated for enriched motifs of 8-16 bp using HOMER motif analysis.

[4] = test system: PD-L1 expression in wHILOs; assay: PD-L1 induction by IFNγ in wHILOs; format: cell-based, human
Experimental: For acute treatment, wHILOs were treated with 10 ng/ml IFNγ in the differentiation medium (S5 with 10 μM Trolox, 2 μM R428, 1 mM N-acetyl cysteine, 10 μM Alk5 inhibitor II, 1 μM T3 and 100 ng/ml rhWnt4 (recombinant human Wnt4)) for 2 hours. Cells were then washed twice with PBS prior to culturing in differentiation medium (S5 with 10 μM Trolox, 2 μM R428, 1 mM N-acetyl cysteine, 10 μM Alk5 inhibitor II, 1 μM T3 and 100 ng/ml rhWnt4) (single pulse stimulation). IFNγ exposure was repeated 3 times with washing and 24 hours resting time in differentiation medium (S5 with 10 μM Trolox, 2 μM R428, 1 mM N-acetyl cysteine, 10 μM Alk5 inhibitor II, 1 μM T3 and 100 ng/ml rhWnt4) between each IFNγ exposure (MPS stimulation) to generate wHILO^ie. After the final IFNγ pulse, cells were cultured in the tissue culture incubator for a week prior to the RNA-seq analyses (FIGS. 14A-14C), ATAC-seq analyses (FIG. 14D) and transplantation into STZ-induced diabetic C57BL6J mice (FIG. 5J) or humanized mice (FIG. 15B).
Total RNA was extracted using TRIzol reagent (Invitrogen) and RNeasy KIT (Qiagen). Reverse transcription was performed with a SuperScript III First-Strand Synthesis System kit (Invitrogen) or PrimeScript RT reagent kit (TAKARA). Real time quantitative RT-PCR (qPCR) was performed using SYBR Green (Bio-Rad).

[5] = test system: PD-L1 expression in human islets; assay: PD-L1 induction by IFNγ in human islets; format: cell-based; conditions: 12 hours after IFNγ treatment (FIG. 12F)
CD80 (B7-1) = target: T1, CD80 (B7-1) (Homo sapiens, UniProt P33681); conditions: cited from earlier work
T1 sequence (P33681 35-288): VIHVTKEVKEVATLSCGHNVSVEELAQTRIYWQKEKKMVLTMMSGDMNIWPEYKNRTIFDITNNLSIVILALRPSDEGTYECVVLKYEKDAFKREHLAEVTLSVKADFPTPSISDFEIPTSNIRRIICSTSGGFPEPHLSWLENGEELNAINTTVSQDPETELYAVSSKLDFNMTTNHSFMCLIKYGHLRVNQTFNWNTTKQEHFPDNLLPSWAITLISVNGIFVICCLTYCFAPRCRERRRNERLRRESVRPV

CD86 (B7-2) = target: T2, CD86 (B7-2) (Homo sapiens, UniProt P42081); conditions: cited from earlier work
T2 sequence (P42081 24-329): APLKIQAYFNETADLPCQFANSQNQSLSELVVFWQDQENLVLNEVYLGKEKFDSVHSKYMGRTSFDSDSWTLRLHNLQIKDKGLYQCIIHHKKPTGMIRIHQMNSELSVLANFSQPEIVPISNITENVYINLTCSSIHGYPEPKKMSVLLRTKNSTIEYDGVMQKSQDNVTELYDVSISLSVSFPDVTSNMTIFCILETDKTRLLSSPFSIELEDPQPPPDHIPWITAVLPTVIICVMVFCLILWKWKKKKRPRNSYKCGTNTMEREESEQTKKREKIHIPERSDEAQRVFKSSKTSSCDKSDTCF

PD-1 = PD-1 (Homo sapiens, UniProt Q15116); conditions: read-out: Kd (dissociation constant), binding to PD-1; cited from earlier work
PD-1, sequence (Q15116 25-288): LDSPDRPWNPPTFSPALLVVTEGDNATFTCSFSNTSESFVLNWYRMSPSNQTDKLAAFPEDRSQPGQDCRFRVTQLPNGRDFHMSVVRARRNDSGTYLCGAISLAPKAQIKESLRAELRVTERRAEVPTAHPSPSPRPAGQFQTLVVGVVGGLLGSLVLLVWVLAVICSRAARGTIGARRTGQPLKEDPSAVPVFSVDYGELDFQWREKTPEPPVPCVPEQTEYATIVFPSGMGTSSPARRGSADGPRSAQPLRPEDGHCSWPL

[6] = test system: human islet-like organoids; assay: Amyloid polypeptide (hIAPP) toxicity in human islet-like organoids; format: cell-based; conditions: 24 hours
Excerpt: The generation of functional human organs according to methods described herein provides new strategies for drug-screening and disease modeling. Specifically, functional organoids can be used as models of type 2 diabetes for drug screening.

## Oc1nc(-c2ccc(C(F)(F)F)cc2)nc2c1CSCC2 [XAV939, reference compound]
[1]
  glucose-stimulated insulin (c-peptide) secretion in vitro: not blocked

## Exendin-4
INS-1 cells
  luciferase secretion (insulin secretion reporter): increased

## GLP-1: incretin used for co-stimulation of insulin secretion
[2]
  GSIS by proinsulin luciferase secretion assay: enhanced GSIS

## IFNγ: recombinant human IFNγ (R&D Systems, 285-IF) used to induce PD-L1 expression
[3]; after MPS IFNγ treatment
  chromatin accessibility at PD-L1, IRF9, JUNB, JUND loci: persistent increases
[3]; after acute (12 h) IFNγ treatment
  chromatin accessibility at IRF1, STAT1: not sustained
[1]; wHILOs
  GSIS functionality after MPS IFNγ: not compromised
[4]; at least 3 pulses, 10 ng/ml, 2 hours per pulse
  duration of sustained PD-L1 expression after MPS: at least 7 days
[4]; multiple pulse stimulation
  PD-L1 expression after repeated short IFNγ exposures (MPS) (in words): high levels of PD-L1 protein expression; also recorded: sustained PD-L1 expression
[4]; single / acute exposure
  PD-L1 induction after single IFNγ exposure (in words): rapidly and robustly induced; also recorded: maximum PD-L1 induction; also recorded: transient
[5]
  increase in PD-L1 expression: approximately 20 fold

## PD-L2: related molecule that shares PD-1 as a receptor
CD80 (B7-1)
  affinity for CD80 (in words): does not have affinity
CD86 (B7-2)
  affinity for CD86 (in words): does not have affinity
PD-1
  Kd: 140 nM

## hIAPP: amyloid polypeptide, an inducer of β cell loss in type 2 diabetic patients (KCNTATCATQRLANFLVHSSNNFGAILSSTNVGSNTY; Islet amyloid polypeptide; UniProt P10997 34-70, looked up)
[6]
  cell cycle arrest: dose-dependently induced G0/G1 arrest

— patent publication US12637662B2, “Cells, islets, and organoids that evade immune detection and autoimmunity, methods of production and use thereof” (SALK INSTITUTE FOR BIOLOGICAL STUDIES, priority 2018, dated 2026)
